Test results from patent US20190231785A1, “PHOSPHODIESTERASE INHIBITOR TREATMENT” (Cyrano Therapeutics, Inc., priority 2012, published 2019).
Marks after values point to notes of the source that are not given here.

Columns and labels:
[1] = system: patients with hyposmia and hypogeusia; conditions: oral 200 to 800 mg/d
Protocol: (§4) Smell and taste functions under each study condition were measured by standardized psychophysical sensory testing techniques. Measurements included determination of detection thresholds (DTs), recognition thresholds (RTs), magnitude estimation (ME), and hedonic response (HR) for 4 odors (e.g., pyridine [dead fish], nitrobenzene [bitter almond], thiophene [petroleum], and amyl acetate [banana oil]) (olfactometry) and for 4 tastants (e.g., sodium chloride [salt], sucrose [sweet], hydrochloride [sour], and urea [bitter]) (gustometry). […] Each measurement was performed independent of any prior knowledge of response.
(§5) Values for the oral trial were taken from the last measurements made before discontinuation of oral drug treatment and before initiation of the intranasal trial. This period varied from 2 to 12 months after oral treatment initiation and reflected the maximal improvement in sensory function each patient experienced.
(§6) The mean and standard error of the mean for all values obtained at each study condition were compared. Differences were considered significant if P<0.05 by the unpaired t test. Paired comparison tests were also used with differences considered significant if P<0.05 by the t test.

cGMP = assay: Parotid saliva cGMP before and after oral theophylline (Example 2); format: in vivo, human; conditions: mean ± SEM
Protocol: (§1) Parotid saliva was collected from each patient by application of a Lashley cup over Stensen's duct with lingual stimulation by placement of concentrated lemon juice. Saliva was collected in plastic tubes and stored at −20° C. until assayed. cAMP and cGMP were measured in saliva by a sensitive 96 plate spectrophotometric assay (R&D Systems, Minneapolis, Minn.).
(§2) All patients were placed in a fixed design open label clinical trial with treatment with oral theophylline. Treatment consisted of fixed treatment periods of two-eight months with sequential doses of the drug at 200 mg, 400 mg and 600 mg. At termination of each of these intervals, patients returned to study site for reevaluation. At the end of each interval subjective responses to treatment were measured with a modification of the 0-100 scale previously used (vs). Subjective responses to treatment were graded on a sliding scale from −100-0-+100 with patients recording improvement (+0-+100), no improvement (0) or worsening (0-−100) of their overall smell function. If overall smell function improved ≥5% they were considered to improve clinically (1). If smell function improved <5% they were considered not to improve (1). At the end of each interval subjective measurements of smell function, measurements of DT, RT, ME and H and measurements of parotid saliva for levels of cAMP and cGMP were obtained. In addition, blood plasma was obtained by venipuncture, placed in ice into zinc free tubes which contained 100 mg zinc free heparin, centrifuged at 3000 rpm for 10-20 min, the plasma transferred to plastic PCR tubes and stored at −20° C. until assayed. Theophylline was assayed by a fluorescence polarization assay (Abbott, Chicago, Ill.), as previously described.
(§3) Data for the cyclic nucleotides from these 31 patients was not analyzed until the entire study of the 312 patients in Example 1 was assembled and analyzed in its entirety. After completion of these analyses, all data for parotid saliva cAMP and cGMP from all patients in whom salivary cAMP and cGMP were obtained were assembled. Levels of salivary cyclic nucleotides varied widely. Initially, without external criteria, there was no way to understand these disparate data. […] In a similar manner, measurements of each patient's plasma theophylline level at each dosage of theophylline (at 200 mg, 400 mg, 600 mg of theophylline) were categorized. The two patient groups were also analyzed post hoc with respect to type of smell loss and etiology of smell loss.

[2] = system: patients with hyposmia and hypogeusia; conditions: oral 200 to 800 mg/d; remark: listed apart in the source
Protocol: as §4, §5, §6

[3] = asthma and COPD; cited from earlier work
cAMP = assay: Parotid saliva cAMP before and after oral theophylline (Example 2); format: in vivo, human; conditions: for parotid saliva cAMP: mean ± SEM
Protocol: as §1, §2, §3

patients with hyposmia = assay: Classification of patients as improved or unimproved on theophylline (Example 2); format: in vivo, human
Protocol: as §2, §3
Differences in the characteristics between these two patient groups were analyzed with respect to each measurement obtained (Mean±SEM). Differences between mean±SEM were analyzed using Student t test and X2; differences of p≤5% were considered significant.

[4] = patients with unimproved smell function, oral 200 mg (9 patients)
[5] = of 31 patients on oral theophylline 200-600 mg

Cn1c(=O)c2[nH]cnc2n(C)c1=O [theophylline]
hypogeusia (gustometry overall) [1]: improved after 2 to 12 months of treatment | DTs for sucrose and hydrochloride and RTs for sodium chloride, hydrochloride and urea ([1]; 2 to 12 months): decreased (more sensitive) | HR for hydrochloride and urea ([1]; 2 to 12 months): increased (more unpleasant) | magnitude estimations for all tastants ([1]; 2 to 12 months): increased (more sensitive) | parotid saliva cGMP (cGMP; patients with improved smell function, oral 200 mg (15 patients)): 0.08 ± 0.016 pmol/mL | parotid saliva cGMP (cGMP; [4]): 0.07 ± 0.018 pmol/mL | parotid saliva cGMP (cGMP; patients with unimproved smell function, oral 400 mg (4 patients)): 0.05 ± 0.014 pmol/mL | parotid saliva cGMP (cGMP; patients with unimproved smell function, oral 600 mg (5 patients)): 0.04 ± 0.07 pmol/mL | hyposmia (olfactometry overall) [2]: improved with 2 to 12 months of treatment | DTs and RTs for all odorants ([2]; 2 to 12 months): decreased (more sensitive) | HRs for all odorants ([2]; 2 to 12 months): increased | MEs for all odorants ([2]; 2 to 12 months): increased (more sensitive) | concentrations at which anti-inflammatory effects are seen [3]: less than 10 mg/L | increase of saliva cAMP above baseline (cAMP; improved patients, oral 200 mg, not significant): 10% | increase of saliva cAMP over baseline (cAMP; improved patients, oral 400 mg, not statistically significant): 40% | increase of saliva cAMP above initial values (cAMP; improved patients, oral 600 mg, significant): 67% | parotid saliva cAMP (cAMP; patients with improved smell function, oral 200 mg (16 patients)): 0.96 ± 0.13 pmol/mL | parotid saliva cAMP (cAMP; [4]): 0.78 ± 0.26 pmol/mL | parotid saliva cAMP (cAMP; patients with unimproved smell function, oral 400 mg (5 patients)): 0.95 ± 0.26 pmol/mL | parotid saliva cAMP (cAMP; patients with unimproved smell function, oral 600 mg (9 patients)): 0.56 ± 0.21 pmol/mL | patients identified as having improved smell function (patients with hyposmia; [5]): 20 patients | patients who did not improve (patients with hyposmia; [5]): 11 patients | improved patients exhibiting Type II hyposmia (patients with hyposmia; oral theophylline, Example 2): 95% | patient number, improved, etiology PIHH (patients with hyposmia; oral theophylline, Example 2): 6 | patient number, improved, etiology allergic rhinitis (AR) (patients with hyposmia; oral theophylline, Example 2): 8 | patient number, improved, etiology head injury (HI) (patients with hyposmia; oral theophylline, Example 2): 3 | patient number, improved, etiology other (patients with hyposmia; oral theophylline, Example 2): 3 | patient number, improved, smell loss Type I (patients with hyposmia; oral theophylline, Example 2): 1 | patient number, improved, smell loss Type II (patients with hyposmia; oral theophylline, Example 2): 19^a | patient number, unimproved, etiology PIHH (patients with hyposmia; oral theophylline, Example 2): 0 | patient number, unimproved, etiology allergic rhinitis (AR) (patients with hyposmia; oral theophylline, Example 2): 8 | patient number, unimproved, etiology head injury (HI) (patients with hyposmia; oral theophylline, Example 2): 3 | patient number, unimproved, etiology other (patients with hyposmia; oral theophylline, Example 2): 0 | patient number, unimproved, smell loss Type I (patients with hyposmia; oral theophylline, Example 2): 4 | patient number, unimproved, smell loss Type II (patients with hyposmia; oral theophylline, Example 2): 7 | unimproved patients exhibiting Type I hyposmia (patients with hyposmia; oral theophylline, Example 2): 57%
